The values that follow come from patent US6699676B1, “Uses of ouabain and ouabain-like molecules in apoptosis related pathologies” (Corporation du Centre de Recherche du Centre, Hospitalier …, priority 1999, dated 2004).

In data set [1] the test system is VSMC. The data set can be described thus: Protein synthesis in VSMC. The settings on record: 8 hours incubation with ouabain, data not shown.
Data set [2] deals with VSMC-E1A. The data set can be described thus: 3'-end DNA labeling / DNA laddering in VSMC-E1A. In kind it is cell-based, rat. The settings on record: 1 mM ouabain, serum deprivation. On the procedure: FIG. 3. Effect of ouabain on morphology (A) and DNA laddering (B and C) in VSMC-E1A. In experiments with ouabain, cells were pretreated with 1 mM of this compound 1 hour before 6 hours exposure to serum-free medium. A. Cell morphology was evaluated by phase contrast microscopy without preliminary fixation. a, c) DMEM containing 10% calf serum; b, d) serum-free DMEM; a, b) without ouabain; c, d) in the presence of ouabain. Micro graphs were prepared using a Nikon phase contrast microscope at ×100 magnification. Apoptotic cells are shown by arrows. B. DNA laddering (left part of the figure) was analyzed with a PhosphorImager, and relative content of low molecular weight DNA fragments (1,500−125 bp−right part of the figure) in cells incubated with 10% calf serum (CS) in the absence of ouabain was taken as 100%. Means±S.E. obtained in 2 experiments performed in triplicate are shown.
3′-end DNA labeling. VSMC-E1A seeded in 75 cm^2 flasks were treated with 4 ml of lysis buffer containing 50 mM tris-HCI, 20 mM EDTA (pH 8.0), 0.5% SDS and 500 μg/ml proteinase K. The lysate was incubated at 50° C. for 3 hours, mixed with 250 μg/ml RNAase A and incubated for 1 hour at 37° C. […] After 1 hour incubation at 37° C., the aliquots were loaded on 1.5% agarose gel, run at 100 V for 3 to 4 hours, transferred onto a nylon membrane (Hybond N+, Amersham), and analyzed with a PhosphorImager. […]

In data set [3] the test system is VSMC. The data set can be described thus: Chromatin cleavage assay in non-transfected VSMC. In kind it is cell-based, rat. As for the experimental part:
Cells were incubated in K^+-containing medium consisting of 91 mM NaCl, 5 mM KCl, 0.9 mM NaH2PO4, 44 mM NaHCO3, 1.8 mM CaCl2, 0.8 mM MgCl2, 33 mM HEPES and 5 mM D-glucose (pH 7.4) (lines 1 and 2) or in K^+-depleted medium (equimolar substitution of KCl by NaCl, line 3) with or without 10% calf serum (CS) and 1 mM ouabain as indicated. In experiments with VSMC-MYC and VSMC-E1A, cells were preincubated for 1 hr with ouabain or with K^+-depleted medium in the presence of CS and then subjected to treatment with serum-free media. After 24 hours (VSMC) or 6 hours (VSMC-MYC and VSMC-E1A), the content of chromatin fragments was measured as described in Experimental Procedures. Mean values±S.E. obtained in 3 experiments performed in quadruplicate (VSMC) or triplicate (VSMC-MYC, VSMC-E1A) are given. ★, ★★ p<0.05 and 0.001 compared to the controls.
VSMC growing in 6-well (LDH release) or 24-well (chromatin cleavage assay) plates were preincubated for 3 hours with or without 1 mM ouabain. In part of the experiments, the cells were subjected to 30 min incubation at 46° C. (heat-treated cells, line 3). They were then incubated in the absence or presence of 10% calf serum during additional 8 hr and chromatin cleavage and LDH release were measured as indicated in Experimental Procedures and with a spectrophotometric kit (Sigma), respectively. Means±S.E. from experiments performed in triplicate (LDH release) or quadruplicate (chromatin cleavage) are given. ★, ★★ p<0.05 and 0.001 compared to ouabain-untreated cells. #p<0.001 compared to serum-supplied, heat-untreated cells.
Cells. VSMC were obtained by explant methods from aortas of 10- to 13-week-old male rats as described previously (17), cultured in DMEM with 10% calf serum, 100 U/ml penicillin, 100 µg/ml streptomycin and used between 10 to 16 passages. Cells transfected with c-myc (VSMC-MYC) and E1A-adenovirus (VSMC-E1A) were obtained in accordance with a previously-described protocol (18,19) and were cultured in the same medium with the addition of 500 µg/ml genticin. Jurkat cells were obtained from the American Type Culture Collection and cultured in RPMI 1640 medium supplied with 10% calf serum, antibiotics, sodium pyruvate, glutamate and β-mercaptoethanol.
Chromatin cleavage assay. Chromatin cleavage in VSMC was estimated by a technique described previously in detail (10). Briefly, VSMC grown in 24-well dishes were labeled for 24 hours in serum-supplied DMEM with [^3H]-thymidine (1 μCi/ml), washed with 2×2 ml of DMEM and incubated in serum-supplied DMEM. […] After 15 min, the cell lysate was transferred to Ependorf tubes, sedimented (12,000 rpm, 10 mm), and 1 ml of supernatant was transferred for the measurement of radioactivity (A1t). The remaining radioactivity from pellets and wells was extracted with 0.5 ml of 1% SDS/4 mM EDTA mixture, combined and counted (A2). Chromatin cleavage was quantified as the content of chromatin fragments normalized by total content of [^3H]-labeled DNA in accordance with the equation [1.5×(A1t−A1o)/(A2+A1t−1.5A1o)]×100% where A1o is the value of A1t before induction of apoptosis. […] At the time intervals shown in FIG. 4, 100 μl of cell suspension was mixed with 100 μl of PBS contairung 0.5% triton X100, and the content of chromatin fragments was measured as described previously in detail (20).

In the case of `C[C@@H]1O[C@@H](O[C@H]2C[C@@H](O)[C@]3(CO)[C@H]4[C@H](O)C[C@]5(C)[C@@H](C6=CC(=O)OC6)CC[C@]5(O)[C@@H]4CC[C@]3(O)C2)[C@H](O)[C@H](O)[C@H]1O` [Ouabain, 1β,3β,5,11α,14,19-hexahydroxycard 20 [22]-enolide 3-[6-deoxy-α-L-mannopyrano-sidel]], the protein synthesis entry in data set [1] was “did not observe any significant effect”. Also, the “DNA laddering and low molecular weight 3'-end labeled DNA fragments” value in data set [2] is “prevented DNA laddering”. Besides, the “Chromatin fragments (%)” value in data set [3] (VSMC, 10% CS, 1 mM ouabain, 24 hours) is recorded as 1.6 ± 0.3%; in data set [3] (VSMC, CS-free, 1 mM ouabain, 24 hours), 2.5 ± 0.6 %; in data set [3] (serum-deprived VSMC, 3 hours preincubation 1 mM ouabain, additional 8 hr) it was 1.8 ± 0.3 %; in data set [3] (serum-supplied VSMC, 3 hours preincubation 1 mM ouabain, additional 8 hr) it was 1.3 ± 0.4 %; in data set [3] (serum-supplied, heat-treated (46° C., 30 min) VSMC, 1 mM ouabain, 8 hr) it was 1.6 ± 0.4%.
